According to ChEMBL document CHEMBL5518236, “Discovery of Clinical Candidate AZD5462, a Selective Oral Allosteric RXFP1 Agonist for Treatment of Heart Failure” (J Med Chem, 2024):
pEC50: −log10 of the molar value. One block for each compound: values may come before it.

What was measured:
Relaxin receptor 1 [1] = biological target: T1, Relaxin receptor 1 (Homo sapiens, UniProt Q9HBX9); assay: Agonist activity at human RXFP1 expressed in HEK293 cells assessed as cAMP production measured after 15 mins by BRET sensor assay
T1 sequence (Q9HBX9 whole entry): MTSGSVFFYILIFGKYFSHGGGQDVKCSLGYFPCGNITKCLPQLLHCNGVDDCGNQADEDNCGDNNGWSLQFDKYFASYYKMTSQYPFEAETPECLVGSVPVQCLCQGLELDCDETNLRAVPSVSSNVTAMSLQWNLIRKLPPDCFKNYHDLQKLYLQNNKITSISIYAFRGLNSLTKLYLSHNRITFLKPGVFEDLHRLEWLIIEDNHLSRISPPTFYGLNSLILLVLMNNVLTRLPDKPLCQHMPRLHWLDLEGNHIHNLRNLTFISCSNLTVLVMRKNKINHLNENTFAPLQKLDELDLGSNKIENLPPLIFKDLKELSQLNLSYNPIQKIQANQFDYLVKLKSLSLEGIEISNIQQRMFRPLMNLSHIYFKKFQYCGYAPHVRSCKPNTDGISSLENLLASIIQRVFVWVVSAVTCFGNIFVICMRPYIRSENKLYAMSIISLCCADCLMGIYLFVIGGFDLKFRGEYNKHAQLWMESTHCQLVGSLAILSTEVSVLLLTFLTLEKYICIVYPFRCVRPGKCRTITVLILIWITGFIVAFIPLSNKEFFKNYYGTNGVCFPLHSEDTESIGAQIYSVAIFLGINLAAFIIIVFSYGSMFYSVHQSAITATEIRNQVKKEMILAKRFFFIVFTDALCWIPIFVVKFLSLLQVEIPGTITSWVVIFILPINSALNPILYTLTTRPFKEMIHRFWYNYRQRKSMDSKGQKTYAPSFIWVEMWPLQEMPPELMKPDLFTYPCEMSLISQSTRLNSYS

Relaxin receptor 1 [2] = biological target: T1, Relaxin receptor 1; assay: Agonist activity at human RXFP1 expressed in CHO-K1 cells assessed as dynamic mass redistribution (DMR) measured after 60 mins pretreated with UBO-QIC by G-protein coupling DMR assay
[3] = Protein binding in human plasma assessed as fraction unbound at 5 uM measured after 18 hrs by LC-MS/MS analysis; type: ADME, cell-free; conditions: read-out: PPB
Relaxin receptor 1 [4] = biological target: T1, Relaxin receptor 1; assay: Agonist activity at human RXFP1 expressed in CHO-K1 cells assessed as dynamic mass redistribution (DMR) measured after 60 mins pretreated with PTX by G-protein coupling DMR assay
[5] = Metabolic stability in human hepatocytes assessed as unbound intrinsic clearance measured per 10^6 viable cells/ml at 1 uM measured upto 120 mins by LC-MS/MS analysis; type: ADME, cell-based, Hepatocyte; conditions: 2 h
Relaxin receptor 1 [6] = biological target: T1, Relaxin receptor 1; assay: Agonist activity at human RXFP1 expressed in HEK293 cells co-expressing G-alphas assessed as cAMP production measured after 15 mins by BRET sensor assay
[7] = Metabolic stability in human hepatocytes assessed as intrinsic clearance measured per 10^6 viable cells/ml at 1 uM measured upto 120 mins by LC-MS/MS analysis; type: ADME, cell-based, Hepatocyte; conditions: read-out: CLH
[8] = Metabolic stability in human liver microsomes assessed as intrinsic clearance at 1 uM measured upto 30 mins by LC-MS/MS analysis; type: ADME, Microsome; conditions: read-out: CLH
Relaxin receptor 1 [9] = biological target: T1, Relaxin receptor 1; assay: Agonist activity at human RXFP1 expressed in HEK293 cells coexpressing GRK2 assessed as beta-arrestin internalization by BRET assay relative to control
[10] = Metabolic stability in human liver microsomes assessed as unbound intrinsic clearance at 1 uM measured upto 30 mins by LC-MS/MS analysis; type: ADME, Microsome; conditions: 0.5 h
Relaxin receptor 1 [11] = biological target: T1, Relaxin receptor 1; assay: Agonist activity at human RXFP1 expressed in CHO-K1 cells assessed as dynamic mass redistribution (DMR) measured after 60 mins by G-protein coupling DMR assay
[12] = Octanol/water partition coefficient, logD of the compound at pH 7.4 by shake flask method; type: physicochemical
Relaxin receptor 1 [13] = biological target: T1, Relaxin receptor 1; assay: Agonist activity at human RXFP1 expressed in HEK293 cells assessed as ERK phosphorylation measured after 24 hrs by HTRF assay
Relaxin receptor 1 [14] = biological target: T1, Relaxin receptor 1; assay: Agonist activity at human RXFP1 expressed in HEK293 cells co-expressing G-alphaz assessed as cAMP production measured after 15 mins by BRET sensor assay
[15] = Apparent permeability across apical to basolateral side in human Caco-2 cells at pH 7.4 by LC-MS/MS analysis; type: ADME, cell-based; conditions: Caco-2, pH 7.4
Relaxin receptor 1 [16] = biological target: T1, Relaxin receptor 1
Description: Agonist activity at human RXFP1 expressed in CHO cells assessed as increase in cAMP level measured after 2 hrs by HTRF cAMP assay

[17] = Efflux ratio of apparent permeability from basolateral side to apical side over apical side to basolateral side in human Caco-2 cells at pH 7.4 by LC-MS/MS analysis; conditions: Caco-2, pH 7.4
[18] = Oral bioavailability in Han Wistar rat at 9.3 micromol/kg by LC-MS/MS analysis; type: ADME, organism-based; conditions: in vivo, 9.3 µmol/kg
[19] = Clearance in Han Wistar rat at 0.93 micromol/kg, iv by LC-MS/MS analysis; type: ADME, organism-based; conditions: in vivo, dose 0.93 µmol/kg
[20] = Volume of distribution at steady state in Han Wistar rat at 0.93 micromol/kg, iv by LC-MS/MS analysis; type: ADME, organism-based; conditions: in vivo, dose 0.93 µmol/kg, read-out: Vdss
[21] = Protein binding in rat plasma assessed as fraction unbound at 5 uM measured after 18 hrs by LC-MS/MS analysis; type: ADME, cell-free; conditions: read-out: PPB
Relaxin receptor 1 [22] = biological target: T2, Relaxin receptor 1 (Mus musculus, UniProt Q6R6I7)
T2 sequence (Q6R6I7 whole entry): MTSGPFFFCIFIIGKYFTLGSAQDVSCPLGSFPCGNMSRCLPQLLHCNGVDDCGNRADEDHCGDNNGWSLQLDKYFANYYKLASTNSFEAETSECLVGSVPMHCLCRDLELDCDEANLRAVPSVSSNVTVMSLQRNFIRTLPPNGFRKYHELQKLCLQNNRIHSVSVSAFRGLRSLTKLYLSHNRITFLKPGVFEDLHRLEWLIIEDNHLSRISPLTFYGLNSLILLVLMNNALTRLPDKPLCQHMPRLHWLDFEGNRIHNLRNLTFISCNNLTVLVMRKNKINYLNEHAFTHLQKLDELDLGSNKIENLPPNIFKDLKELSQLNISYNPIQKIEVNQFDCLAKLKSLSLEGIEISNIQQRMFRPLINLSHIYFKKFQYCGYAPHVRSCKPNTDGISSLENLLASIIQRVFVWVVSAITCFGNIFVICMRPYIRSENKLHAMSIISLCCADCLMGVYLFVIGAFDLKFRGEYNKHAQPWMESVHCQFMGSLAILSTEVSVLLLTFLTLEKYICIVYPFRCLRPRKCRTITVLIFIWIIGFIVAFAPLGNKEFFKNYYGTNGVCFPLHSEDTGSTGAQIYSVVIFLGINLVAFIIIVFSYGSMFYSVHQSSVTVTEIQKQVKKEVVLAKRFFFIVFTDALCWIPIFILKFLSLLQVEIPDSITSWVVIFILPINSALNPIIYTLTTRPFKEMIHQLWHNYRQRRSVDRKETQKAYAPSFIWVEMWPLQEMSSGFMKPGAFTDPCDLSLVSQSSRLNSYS
Description: Agonist activity at mouse RXFP1 expressed in CHO-K1 cells assessed as increase in cAMP level measured after 2 hrs by HTRF cAMP assay

[23] = Metabolic stability in rat hepatocytes assessed as unbound intrinsic clearance measured per 10^6 viable cells/ml at 1 uM measured upto 120 mins by LC-MS/MS analysis; type: ADME, cell-based, Hepatocyte; conditions: 2 h
Relaxin receptor 1 [24] = biological target: T3, Relaxin receptor 1 (Rattus norvegicus, UniProt Q6R6I6); assay: Agonist activity at rat RXFP1 expressed in CHO-K1 cells assessed as increase in cAMP level measured after 2 hrs by HTRF cAMP assay; type: functional, cell-based
T3 sequence (Q6R6I6 whole entry): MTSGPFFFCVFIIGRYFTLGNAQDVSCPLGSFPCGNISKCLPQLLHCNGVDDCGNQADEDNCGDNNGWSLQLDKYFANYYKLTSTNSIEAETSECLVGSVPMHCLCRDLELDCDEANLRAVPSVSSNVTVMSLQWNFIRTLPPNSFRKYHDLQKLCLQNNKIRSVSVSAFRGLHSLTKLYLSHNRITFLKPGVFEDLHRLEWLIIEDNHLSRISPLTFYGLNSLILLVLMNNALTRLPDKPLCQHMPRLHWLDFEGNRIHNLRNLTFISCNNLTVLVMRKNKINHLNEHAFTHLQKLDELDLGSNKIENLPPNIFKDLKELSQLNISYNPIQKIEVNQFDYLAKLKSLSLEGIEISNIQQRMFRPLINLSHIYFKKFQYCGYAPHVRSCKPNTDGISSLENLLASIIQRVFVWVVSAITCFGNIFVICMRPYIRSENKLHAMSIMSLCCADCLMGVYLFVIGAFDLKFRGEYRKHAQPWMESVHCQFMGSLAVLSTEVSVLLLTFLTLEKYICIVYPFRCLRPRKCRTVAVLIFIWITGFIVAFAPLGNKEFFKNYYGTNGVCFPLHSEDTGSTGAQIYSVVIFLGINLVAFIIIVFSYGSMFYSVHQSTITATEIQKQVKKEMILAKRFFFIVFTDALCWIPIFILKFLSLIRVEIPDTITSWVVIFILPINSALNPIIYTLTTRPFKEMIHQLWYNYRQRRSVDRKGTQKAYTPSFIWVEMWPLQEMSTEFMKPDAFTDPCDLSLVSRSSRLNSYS

[25] = Half life in Han Wistar rat at 0.93 micromol/kg, iv by LC-MS/MS analysis; type: ADME, organism-based; conditions: in vivo, dose 0.93 µmol/kg

pEC50 (Relaxin receptor 1 [1]): 10.50
pEC50 (Relaxin receptor 1 [2]): 10.60
fraction unbound at 18 h, 5 µM [3]: < 0.0023
pEC50 (Relaxin receptor 1 [4]): 10.70
pEC50 (Relaxin receptor 1 [6]): 9.50
microsomal CLint at 1 µM [8]: 61 µL/min/mg
pEC50 (Relaxin receptor 1 [9]): 8.82
CL free [10]: 3.39 10^3uL/min/mg
pEC50 (Relaxin receptor 1 [11]): 10.60
logD [12]: 4.9
pEC50 (Relaxin receptor 1 [13]): 8.50
pEC50 (Relaxin receptor 1 [14]): 8.60
Structure (SMILES): COc1cc(F)c(O[C@H]2CC[C@@](C)(C(=O)O)CC2)cc1C(=O)N[C@@H]1[C@H]2CC[C@H](C2)[C@@H]1C(=O)Nc1ccc(F)c(S(F)(F)(F)(F)F)c1
CL free [5]: 2.1 10^3uL/min
hepatocyte CLint at 1 µM [7]: 21 µL/min/1e6 cells

Papp A→B [15]: 81 ×10⁻⁶ cm/s
pEC50 (Relaxin receptor 1 [16]): 7.40
microsomal CLint at 1 µM [8]: 14 µL/min/mg
CL free [10]: 20 µL/min/mg
logD [12]: 3
efflux ratio [17]: 6.8
Structure (SMILES): COc1cc(F)c(O[C@H]2CC[C@@](C)(C(=O)O)CC2)cc1C(=O)N[C@@H]1[C@H]2CC[C@H](C2)[C@@H]1C(=O)NCC(C)(C)C
CL free [5]: 4.3 µL/min
hepatocyte CLint at 1 µM [7]: 2.7 µL/min/1e6 cells

bioavailability [18]: 61%
clearance [19]: 41 mL/min/kg
Vd [20]: 0.55 L/kg
fraction unbound at 18 h, 5 µM [21]: 0.078
pEC50 (Relaxin receptor 1 [22]): 5.90
pEC50 (Relaxin receptor 1 [24]): 4.80
microsomal CLint at 1 µM [8]: < 3 µL/min/mg
half-life [25]: 120 min
CL free [10]: < 4.3 µL/min/mg
logD [12]: 2.3
Structure (SMILES): COc1cc(C#N)c(O[C@H]2CC[C@@](C)(C(=O)O)CC2)cc1C(=O)N[C@@H]1[C@H]2CC[C@H](C2)[C@@H]1C(=O)NCC(C)(C)C
CL free [5]: < 2 µL/min
hepatocyte CLint at 1 µM [7]: < 1.3 µL/min/1e6 cells
CL free [23]: 15 µL/min
